Results: ChEMBL document CHEMBL5523718, “Design, synthesis, molecular modeling, in vitro and in vivo biological evaluation of potent anthranilamide derivatives as dual P-glycoprotein and CYP3A4 inhibitors” (Eur J Med Chem, 2024)
In brackets after ≈: the same amount, converted by molar mass.

Legend:
[1] = target: Cytochrome P450 2D6 (Homo sapiens, UniProt P10635); assay: Inhibition of CYP2D6 (unknown origin) using Bufuralol as substrate; assay type: ADME
[2] = C0 in CD-1 mouse at 5 mg/kg, iv measured upto 8 hrs by LC-MS/MS analysis; assay type: ADME, organism-based; details: in vivo
[3] = target: T1, ATP-dependent translocase ABCB1 (Homo sapiens, UniProt P08183); assay: Inhibition of P-gp in human MES-SA/Dx5 cells; assay type: cell-based
[4] = target: T2, Cytochrome P450 3A4 (Homo sapiens, UniProt P08684); assay: Inhibition of CYP3A4 in human liver using luciferin-IPA as substrate microsome preincubated with compound for 10 mins followed by NADPH addition and measured after 5 mins; assay type: ADME, microsomes
[5] = target: T2, Cytochrome P450 3A4; assay: Inhibition of CYP3A4 in human Hepatocyte using Luciferin-IPA as substrate; assay type: ADME, cell-based
[6] = Equilibrium solubility of compound in PBS at pH 7.4; assay type: physicochemical; details: PBS
[7] = Apparent permeability across apical to basolateral side in human Caco-2 cells assessed as drug recovery; assay type: ADME, cell-based; details: read-out: Drug recovery
[8] = Apparent permeability across basolateral to apical side in human Caco-2 cells assessed as drug recovery; assay type: ADME, cell-based; details: read-out: Drug recovery
[9] = target: T3, P-gp (ABCB1) (Homo sapiens, UniProt P08183); assay: Inhibition of P-gp in human Caco-2 cells at 10 uM in presence of paclitaxel relative to control; assay type: cell-based; details: Caco-2, probe paclitaxel
[10] = target: T3, P-gp (ABCB1); assay: Inhibition of P-gp in human Caco-2 cells at 5 uM in presence of paclitaxel relative to control; assay type: cell-based; details: Caco-2, probe paclitaxel
[11] = target: T3, P-gp (ABCB1); assay: Inhibition of P-gp in human Caco-2 cells at 1 uM in presence of paclitaxel relative to control; assay type: cell-based; details: Caco-2, probe paclitaxel
[12] = target: T3, P-gp (ABCB1); assay: Inhibition of P-gp in human Caco-2 cells at 0.1 uM in presence of paclitaxel relative to control; assay type: cell-based; details: Caco-2, probe paclitaxel
[13] = target: T3, P-gp (ABCB1); assay: Inhibition of P-gp in human Caco-2 cells at 0.01 uM in presence of paclitaxel relative to control; assay type: cell-based; details: Caco-2, probe paclitaxel
[14] = target: T1, ATP-dependent translocase ABCB1; assay: Inhibition of P-gp in human Caco-2 cells in presence of paclitaxel; assay type: cell-based
[15] = Inhibition of CYP3A4 in mouse liver using luciferin-IPA as substrate microsome preincubated with compound for 10 mins followed by NADPH addition and measured after 5 mins; assay type: ADME, microsomes
[16] = Inhibition of CYP3A4 in monkey liver using luciferin-IPA as substrate microsome preincubated with compound for 10 mins followed by NADPH addition and measured after 5 mins; assay type: ADME, microsomes, Macaca mulatta
[17] = Metabolic stability in human liver microsome assessed as half life; assay type: ADME; details: liver microsomes
[18] = Metabolic stability in rat liver microsome assessed as half life; assay type: ADME; details: liver microsomes
[19] = Metabolic stability in mouse liver microsome assessed as half life; assay type: ADME; details: liver microsomes
[20] = Metabolic stability in monkey liver microsome assessed as half life; assay type: ADME, Macaca mulatta; details: rhesus monkey, liver microsomes
[21] = Metabolic stability in monkey liver microsome assessed as intrinsic clearance; assay type: ADME, Macaca mulatta; details: rhesus monkey, microsomes
[22] = target: T4, Broad substrate specificity ATP-binding cassette transporter ABCG2 (Homo sapiens, UniProt Q9UNQ0); assay: Inhibition of BCRP (unknown origin) ATPase activity
T4 sequence (Q9UNQ0 whole entry): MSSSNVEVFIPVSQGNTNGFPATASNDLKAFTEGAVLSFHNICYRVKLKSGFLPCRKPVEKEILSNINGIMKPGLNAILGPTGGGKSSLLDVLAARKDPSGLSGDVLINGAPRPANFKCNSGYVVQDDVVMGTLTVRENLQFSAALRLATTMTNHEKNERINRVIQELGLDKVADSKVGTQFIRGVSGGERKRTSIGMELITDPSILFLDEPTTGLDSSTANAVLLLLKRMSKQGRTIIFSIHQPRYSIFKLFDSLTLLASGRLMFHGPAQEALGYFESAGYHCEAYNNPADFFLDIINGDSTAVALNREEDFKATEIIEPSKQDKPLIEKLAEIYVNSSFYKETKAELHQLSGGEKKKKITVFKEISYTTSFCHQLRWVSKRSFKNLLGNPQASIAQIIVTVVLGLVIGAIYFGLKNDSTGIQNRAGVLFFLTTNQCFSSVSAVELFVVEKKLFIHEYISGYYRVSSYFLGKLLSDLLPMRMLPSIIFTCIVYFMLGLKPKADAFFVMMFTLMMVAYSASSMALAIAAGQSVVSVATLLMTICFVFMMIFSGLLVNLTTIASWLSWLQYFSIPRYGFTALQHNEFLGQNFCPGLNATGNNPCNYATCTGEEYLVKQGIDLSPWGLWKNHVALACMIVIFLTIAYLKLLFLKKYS

[23] = target: ATP-binding cassette sub-family C member 2 (Homo sapiens, UniProt Q92887); assay: Inhibition of MRP2 (unknown origin) ATPase activity
[24] = target: T5, Cytochrome P450 2C8 (Homo sapiens, UniProt P10632); assay: Inhibition of CYP2C8 (unknown origin) using Amodiaquine as substrate; assay type: ADME
T5 sequence (P10632 whole entry): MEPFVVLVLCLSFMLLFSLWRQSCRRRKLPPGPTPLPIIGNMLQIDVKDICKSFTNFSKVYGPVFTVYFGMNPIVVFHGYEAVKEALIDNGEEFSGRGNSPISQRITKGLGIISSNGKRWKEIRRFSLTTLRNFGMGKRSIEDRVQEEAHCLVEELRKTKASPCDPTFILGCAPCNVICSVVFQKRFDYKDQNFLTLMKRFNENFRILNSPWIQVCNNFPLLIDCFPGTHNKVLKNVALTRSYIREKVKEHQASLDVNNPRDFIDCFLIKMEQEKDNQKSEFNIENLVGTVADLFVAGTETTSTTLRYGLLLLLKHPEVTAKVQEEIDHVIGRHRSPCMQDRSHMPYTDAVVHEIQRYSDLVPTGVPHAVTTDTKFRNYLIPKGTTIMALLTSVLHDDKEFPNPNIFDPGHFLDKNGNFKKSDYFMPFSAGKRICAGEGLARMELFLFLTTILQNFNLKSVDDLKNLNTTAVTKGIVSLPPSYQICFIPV

[25] = target: Cytochrome P450 2C19 (Homo sapiens, UniProt P33261); assay: Inhibition of CYP2C19 (unknown origin) using S-mephenytoin as substrate; assay type: ADME
[26] = Tlast in CD-1 mouse at 5 mg/kg, iv measured upto 8 hrs by LC-MS/MS analysis; assay type: ADME, organism-based; details: in vivo

T3 sequence (P08183 whole entry): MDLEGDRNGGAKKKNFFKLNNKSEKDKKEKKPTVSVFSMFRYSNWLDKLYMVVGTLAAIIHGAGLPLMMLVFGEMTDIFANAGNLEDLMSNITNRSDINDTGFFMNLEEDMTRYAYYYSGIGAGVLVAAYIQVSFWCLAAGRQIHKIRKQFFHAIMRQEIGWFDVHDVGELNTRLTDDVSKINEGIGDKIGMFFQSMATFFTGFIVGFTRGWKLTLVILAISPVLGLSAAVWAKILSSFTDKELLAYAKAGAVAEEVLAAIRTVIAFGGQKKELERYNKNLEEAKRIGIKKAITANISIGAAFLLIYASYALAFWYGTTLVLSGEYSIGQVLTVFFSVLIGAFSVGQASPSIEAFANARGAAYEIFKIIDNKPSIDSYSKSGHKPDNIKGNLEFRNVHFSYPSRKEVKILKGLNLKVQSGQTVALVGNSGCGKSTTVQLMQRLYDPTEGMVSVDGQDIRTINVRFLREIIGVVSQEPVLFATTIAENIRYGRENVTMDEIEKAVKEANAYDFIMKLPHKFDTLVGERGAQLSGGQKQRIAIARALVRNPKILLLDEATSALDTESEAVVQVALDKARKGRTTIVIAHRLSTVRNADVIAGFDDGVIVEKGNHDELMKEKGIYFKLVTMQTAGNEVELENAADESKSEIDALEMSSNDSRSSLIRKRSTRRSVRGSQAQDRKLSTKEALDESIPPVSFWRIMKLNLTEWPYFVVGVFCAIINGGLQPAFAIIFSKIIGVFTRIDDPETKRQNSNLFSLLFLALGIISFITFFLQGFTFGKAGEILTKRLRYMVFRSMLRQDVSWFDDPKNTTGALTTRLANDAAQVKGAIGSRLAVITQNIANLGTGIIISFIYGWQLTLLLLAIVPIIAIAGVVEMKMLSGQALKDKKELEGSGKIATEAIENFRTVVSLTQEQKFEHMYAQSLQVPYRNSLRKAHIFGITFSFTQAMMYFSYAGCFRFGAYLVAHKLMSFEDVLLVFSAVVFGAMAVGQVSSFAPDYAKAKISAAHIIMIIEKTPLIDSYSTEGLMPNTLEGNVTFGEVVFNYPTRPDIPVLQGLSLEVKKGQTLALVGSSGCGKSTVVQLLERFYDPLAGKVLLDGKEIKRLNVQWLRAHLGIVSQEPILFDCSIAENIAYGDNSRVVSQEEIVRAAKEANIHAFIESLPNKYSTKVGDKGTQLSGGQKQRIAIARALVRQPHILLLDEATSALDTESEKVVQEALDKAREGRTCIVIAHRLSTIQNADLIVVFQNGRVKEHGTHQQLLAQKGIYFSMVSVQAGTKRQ
T1 sequence (P08183 whole entry): as above
T2 sequence (P08684 whole entry): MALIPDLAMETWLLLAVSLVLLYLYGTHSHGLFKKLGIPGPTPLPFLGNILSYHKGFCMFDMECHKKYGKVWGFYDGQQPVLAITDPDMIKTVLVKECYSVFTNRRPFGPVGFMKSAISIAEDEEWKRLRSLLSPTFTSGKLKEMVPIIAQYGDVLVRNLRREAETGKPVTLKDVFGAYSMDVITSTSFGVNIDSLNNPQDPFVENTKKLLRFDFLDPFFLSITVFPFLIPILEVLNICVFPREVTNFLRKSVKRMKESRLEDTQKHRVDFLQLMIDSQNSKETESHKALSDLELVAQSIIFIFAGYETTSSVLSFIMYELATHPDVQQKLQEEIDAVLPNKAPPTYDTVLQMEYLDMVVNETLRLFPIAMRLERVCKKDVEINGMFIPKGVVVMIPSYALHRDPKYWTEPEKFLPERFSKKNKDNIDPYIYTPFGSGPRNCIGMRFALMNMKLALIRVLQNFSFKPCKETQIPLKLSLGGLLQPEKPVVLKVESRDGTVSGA
Cytochrome P450 2D6, sequence (P10635 whole entry): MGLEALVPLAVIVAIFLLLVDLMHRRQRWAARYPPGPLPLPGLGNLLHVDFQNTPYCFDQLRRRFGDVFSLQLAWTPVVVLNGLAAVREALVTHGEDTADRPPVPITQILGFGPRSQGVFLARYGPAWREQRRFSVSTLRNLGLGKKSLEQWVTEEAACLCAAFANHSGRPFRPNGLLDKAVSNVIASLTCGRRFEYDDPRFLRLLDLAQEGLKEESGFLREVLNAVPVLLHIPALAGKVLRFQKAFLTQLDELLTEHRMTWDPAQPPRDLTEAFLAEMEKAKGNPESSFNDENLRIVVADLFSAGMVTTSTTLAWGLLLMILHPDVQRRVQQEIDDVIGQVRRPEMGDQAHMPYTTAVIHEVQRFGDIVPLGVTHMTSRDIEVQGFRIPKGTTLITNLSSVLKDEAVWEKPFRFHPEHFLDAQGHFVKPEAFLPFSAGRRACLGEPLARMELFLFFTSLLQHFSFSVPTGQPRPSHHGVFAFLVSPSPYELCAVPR
ATP-binding cassette sub-family C member 2, sequence (Q92887 whole entry): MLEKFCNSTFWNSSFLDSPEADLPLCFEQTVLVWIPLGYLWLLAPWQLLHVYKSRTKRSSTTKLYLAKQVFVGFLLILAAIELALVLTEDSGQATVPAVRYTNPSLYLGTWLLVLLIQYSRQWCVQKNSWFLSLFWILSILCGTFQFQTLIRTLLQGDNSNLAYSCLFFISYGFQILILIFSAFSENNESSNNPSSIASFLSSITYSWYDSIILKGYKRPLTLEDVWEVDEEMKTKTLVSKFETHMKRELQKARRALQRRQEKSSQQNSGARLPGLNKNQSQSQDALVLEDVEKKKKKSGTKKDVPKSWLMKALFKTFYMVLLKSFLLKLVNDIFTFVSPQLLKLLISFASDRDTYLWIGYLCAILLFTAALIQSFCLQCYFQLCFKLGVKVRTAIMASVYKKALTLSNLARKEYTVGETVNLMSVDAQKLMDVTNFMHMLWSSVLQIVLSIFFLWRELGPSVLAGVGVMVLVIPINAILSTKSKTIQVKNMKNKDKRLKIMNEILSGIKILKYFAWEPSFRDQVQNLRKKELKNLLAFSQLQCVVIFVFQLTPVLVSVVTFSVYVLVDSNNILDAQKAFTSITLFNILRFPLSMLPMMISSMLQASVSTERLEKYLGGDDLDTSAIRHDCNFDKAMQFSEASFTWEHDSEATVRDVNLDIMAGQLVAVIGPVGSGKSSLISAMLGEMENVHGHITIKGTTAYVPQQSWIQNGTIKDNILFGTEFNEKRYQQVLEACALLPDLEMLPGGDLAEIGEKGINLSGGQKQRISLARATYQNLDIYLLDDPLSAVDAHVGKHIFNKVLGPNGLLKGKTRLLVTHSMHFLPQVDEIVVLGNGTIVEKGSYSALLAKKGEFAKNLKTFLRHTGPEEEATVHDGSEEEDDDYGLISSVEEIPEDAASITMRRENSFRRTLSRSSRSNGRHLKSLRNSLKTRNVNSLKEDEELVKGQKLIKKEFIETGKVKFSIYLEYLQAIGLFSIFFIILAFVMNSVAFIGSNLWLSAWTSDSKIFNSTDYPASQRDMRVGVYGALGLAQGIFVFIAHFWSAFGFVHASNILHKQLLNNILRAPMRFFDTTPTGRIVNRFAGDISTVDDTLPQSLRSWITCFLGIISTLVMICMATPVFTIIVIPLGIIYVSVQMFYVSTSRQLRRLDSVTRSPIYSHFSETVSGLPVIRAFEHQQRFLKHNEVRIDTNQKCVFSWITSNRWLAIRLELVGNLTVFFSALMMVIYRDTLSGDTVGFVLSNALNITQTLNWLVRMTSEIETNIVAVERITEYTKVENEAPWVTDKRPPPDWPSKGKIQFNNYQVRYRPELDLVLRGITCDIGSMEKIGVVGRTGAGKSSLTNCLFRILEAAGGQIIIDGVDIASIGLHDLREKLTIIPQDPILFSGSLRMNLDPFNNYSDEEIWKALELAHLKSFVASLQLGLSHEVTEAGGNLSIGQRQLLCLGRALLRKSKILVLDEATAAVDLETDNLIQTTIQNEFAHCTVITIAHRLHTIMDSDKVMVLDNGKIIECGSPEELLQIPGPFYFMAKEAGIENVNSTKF

COc1cc(NC(=O)c2cc(=O)c3ccccc3o2)c(C(=O)Nc2ccc(C3CCN(Cc4cccc(-n5ccnc5)c4)CC3)cc2)cc1OC
IC50 [1]: 69000 nM | C0 at 8 h [2]: 6540 ng/mL | EC50 [3]: 28 nM | IC50 [4]: 223 nM | IC50 [5]: 1470 nM | solubility thermodynamic [6]: 0.57 µM (≈ 0.39 µg/mL) | recovery [7]: 82% | recovery [8]: 82% | inhibition at 10 µM [9]: 99% | inhibition at 5 µM [10]: 99% | inhibition at 1 µM [11]: 97% | inhibition at 0.1 µM [12]: 89% | inhibition at 0.01 µM [13]: 54% | IC50 [14]: 9 nM | IC50 [15]: 89 nM | IC50 [16]: 140 nM | half-life [17]: 4.4 min | half-life [18]: 15 min | half-life [19]: 37 min | half-life [20]: 4.9 min | CLH [21]: 280 µL/min/mg | IC50 [22]: > 1250 nM | IC50 [23]: > 10000 nM | IC50 [24]: 11000 nM | IC50 [25]: 39000 nM | Tlast [26]: 4.8 h
